Reference: ChEMBL document CHEMBL5050859, “Gpx4 inhibitors, pharmaceutical compositions thereof, and their use for treating gpx4-mediated diseases” (2021)

System: Huh-7
Assay: Antiproliferative activity against human Huh-7 cells after 24 hrs by Cell Titer Glo assay
Assay type: functional, cell-based
Settings: Huh-7, 24 h

SMILES | EC50
C#CC(=O)N(c1cccc(Cl)c1)C(C(=O)NCc1ccccc1)c1cccc(OCC(=O)OC)c1 (stereo not drawn) | 100 nM
C#CC(=O)N(c1cccc(F)c1)C(C(=O)NCc1ccccc1)c1cccc(N)c1 (stereo not drawn) | 100 nM
C#CC(=O)N(c1cc(Cl)ccc1F)C(C(=O)NCc1ccccc1)c1ccc(N)cc1 (stereo not drawn) | ≤ 100 nM
C#CC(=O)N(c1cccc(NC(C)=O)c1)C(C(=O)NCc1ccccc1)c1ccc(N)cc1 (stereo not drawn) | 2000 nM
C#CC(=O)N(c1cccc(Cl)c1)C(C(=O)NCc1ccccc1)c1ccccc1F (stereo not drawn) | ≤ 100 nM
C#CC(=O)N(c1ccc2ncsc2c1)C(C(=O)NCc1ccccc1)c1ccccc1 (stereo not drawn) | 100 nM
C#CC(=O)N(c1cccc(O)c1)C(C(=O)NCc1ccccc1)c1ccc(N)cc1 (stereo not drawn) | 2000 nM
C#CC(=O)N(c1ccc(OC)c(Cl)c1)C(C(=O)NCc1ccccc1)c1ccc(N)cc1 (stereo not drawn) | ≤ 100 nM
C#CC(=O)N(c1ccc(O)cc1)C(C(=O)NCc1ccccc1)c1cccc(N)c1 (stereo not drawn) | 2000 nM
C#CC(=O)N(c1ccc2c(c1)OC(F)(F)O2)C(C(=O)NCc1ccccc1)c1ccccc1 (stereo not drawn) | ≤ 100 nM
O=C(C#CCO)N(c1cccc(Cl)c1)C1(C(=O)NCc2ccccc2)CCOCC1 | > 10000 nM
C#CC(=O)N(c1cccc(OC)c1)C(C(=O)NCc1ccccc1)c1cccc(N)c1 (stereo not drawn) | 100 nM
C#CC(=O)N(c1cccc(C(=O)OC)c1)C(C(=O)NCc1ccccc1)c1cccc(N)c1 (stereo not drawn) | ≤ 100 nM
C#CC(=O)N(c1cccc(Cl)c1)C(C(=O)NCc1ccccc1)c1cccs1 (stereo not drawn) | ≤ 100 nM
C#CC(=O)N(c1cccc(C(=O)OC)c1)C(C(=O)NCc1ccccc1)c1ccccc1 (stereo not drawn) | ≤ 100 nM
CC#CC(=O)N(c1ccc2c(cnn2C)c1)C1(C(=O)NCc2ccccc2)CCCOC1 (stereo not drawn) | 2000 nM
C#CC(=O)N(c1cccc(-c2ccn(C)n2)c1)C1(C(=O)NCc2ccccc2)CCOCC1 | 100 nM
C#CC(=O)N(Cc1ccccc1)C(C(=O)NCc1ccccc1)c1cccc(N)c1 (stereo not drawn) | 500 nM
C#CC(=O)N(c1ccc(Cl)cc1)C(C(=O)NCc1ccccc1)c1ccc(N)cc1 (stereo not drawn) | ≤ 100 nM
CC#CC(=O)N(c1ccc2c(cnn2C)c1)C1(C(=O)NCc2ccccc2)CCOCC1 | > 10000 nM
CC#CC(=O)N(c1ccc(Cl)c(Cl)c1)C(C(=O)NCc1ccccc1)c1ccccc1 (stereo not drawn) | > 10000 nM
C#CC(=O)N(c1ccc(NS(C)(=O)=O)cc1)C(C(=O)NCc1ccccc1)c1ccc(N)cc1 (stereo not drawn) | 2000 nM
C#CC(=O)N(c1cccc(OC)c1)C(C(=O)NCc1ccccc1)c1ccc(N)cc1 (stereo not drawn) | ≤ 100 nM
C#CC(=O)N(c1ccc(O)cc1)C(C(=O)NCc1ccccc1)c1ccc(N)cc1 (stereo not drawn) | 2000 nM
C#CC(=O)N(c1ccc2nsnc2c1)C(C(=O)NCc1ccccc1)c1ccccc1 (stereo not drawn) | ≤ 100 nM

SMILES | EC50
C#CC(=O)N(c1ccc(S(N)(=O)=O)cc1)C(C(=O)NCc1ccccc1)c1ccc(N)cc1 (stereo not drawn) | > 10000 nM
C#CC(=O)N(c1cccc(NS(C)(=O)=O)c1)C(C(=O)NCc1ccccc1)c1cccc(N)c1 (stereo not drawn) | 2000 nM
C#CC(=O)N(c1ccc2scnc2c1)C(C(=O)NCc1ccccc1)c1ccccc1 (stereo not drawn) | ≤ 100 nM
C#CC(=O)N(c1cccc(Cl)c1)C(C(=O)NCc1ccccc1)c1ccccc1 (stereo not drawn) | ≤ 100 nM
COc1ccc(N(C(=O)C#CCO)C(C(=O)NCCc2ccccc2)c2cccs2)cc1Cl (stereo not drawn) | 2000 nM
CC#CC(=O)N(c1ccc2c(cnn2C)c1)C1(C(=O)NCc2ccccc2)CCCC(C(=O)OC)C1 (stereo not drawn) | > 10000 nM
C#CC(=O)N(c1cccc(C(=O)OC)c1)C(C(=O)NCc1ccccc1)c1cccs1 (stereo not drawn) | ≤ 100 nM
C#CC(=O)N(c1cccc(Cl)c1)C(C(=O)NCc1ccccc1)C1CCC(C(=O)OC)CC1 (stereo not drawn) | 100 nM
C#CC(=O)N(c1cccc(N)c1)C(C(=O)NCc1ccccc1)c1ccc(N)cc1 (stereo not drawn) | 500 nM
C#CC(=O)N(c1cccc(-c2cc[nH]n2)c1)C1(C(=O)NCc2ccccc2)CCOCC1 | 100 nM
C#CC(=O)N(c1cc(Cl)ccc1F)C(C(=O)NCc1ccccc1)c1cccc(N)c1 (stereo not drawn) | ≤ 100 nM
Cn1ncc2cc(N(C(=O)C#CCO)C3(C(=O)NCc4ccccc4)CCOCC3)ccc21 | > 10000 nM
C#CC(=O)N(c1cccc(C#N)c1)C(C(=O)NCc1ccccc1)c1cccc(N)c1 (stereo not drawn) | 100 nM
C#CC(=O)N(c1ccc(C#N)cc1)C(C(=O)NCc1ccccc1)c1cccc(N)c1 (stereo not drawn) | ≤ 100 nM
C#CC(=O)N(c1cccc(Cl)c1F)C(C(=O)NCc1ccccc1)c1cccc(N)c1 (stereo not drawn) | ≤ 100 nM
C#CC(=O)N(c1ccc(Cl)cc1)C(C(=O)NCc1ccccc1)c1cccc(N)c1 (stereo not drawn) | ≤ 100 nM
C#CC(=O)N(c1cccc(Cl)c1)C(C(=O)NCc1ccccc1)c1ccc(F)cc1 (stereo not drawn) | ≤ 100 nM
C#CC(=O)N(c1cccc(Cl)c1F)C(C(=O)NCc1ccccc1)c1ccccc1 (stereo not drawn) | 100 nM
C#CC(=O)N(c1cccc2nonc12)C(C(=O)NCc1ccccc1)c1ccccc1 (stereo not drawn) | 100 nM
C#CC(=O)N(c1cccc(CO)c1)C(C(=O)NCc1ccccc1)c1cccc(N)c1 (stereo not drawn) | 2000 nM
C#CC(=O)N(c1cccc2c1OCO2)C(C(=O)NCc1ccccc1)c1ccccc1 (stereo not drawn) | 100 nM
C#CC(=O)N(c1ccc(O)cc1)C(C(=O)NC(C)(C)C)c1cccc(N)c1 (stereo not drawn) | 2000 nM
C#CC(=O)N(c1ccc(CO)cc1)C(C(=O)NC(C)(C)C)c1cccc(N)c1 (stereo not drawn) | 2000 nM
C#CC(=O)N(c1cccc(Cl)c1)C(C(=O)NCc1ccc(C#N)cc1)c1ccccc1 (stereo not drawn) | ≤ 100 nM
C#CC(=O)N(c1ccc(C#N)cc1)C(C(=O)NC(C)(C)C)c1ccc(N)cc1 (stereo not drawn) | ≤ 100 nM

SMILES | EC50
C#CC(=O)N(c1ccc2c(c1)OCO2)C(C(=O)NCc1ccccc1)c1ccccc1 (stereo not drawn) | ≤ 100 nM
O=C(C#CCO)N(c1cc(Cl)ccc1Cl)C1(C(=O)NCc2ccccc2)CCOCC1 | > 10000 nM
C#CC(=O)N(c1ccc(C#N)cc1)C(C(=O)NCc1ccccc1)c1ccc(N)cc1 (stereo not drawn) | ≤ 100 nM
C#CC(=O)N(c1cccc(Cl)c1)C1(C(=O)NCc2ccccc2)CCC(C(=O)OC)CC1 (stereo not drawn) | ≤ 100 nM
C#CC(=O)N(c1ccc2nncn2c1)C(C(=O)NCc1ccccc1)c1ccccc1 (stereo not drawn) | 100 nM
C#CC(=O)N(c1cccc2nsnc12)C(C(=O)NCc1ccccc1)c1ccccc1 (stereo not drawn) | ≤ 100 nM
C#CC(=O)N(c1cccc(Cl)c1)C(C(=O)NCc1ccccc1)C1CC1 (stereo not drawn) | 100 nM
C#CC(=O)N(c1ccc(C(=O)OC)cc1)C(C(=O)NCc1ccccc1)c1ccc(N)cc1 (stereo not drawn) | ≤ 100 nM
C#CC(=O)N(c1ccc(Cl)cc1)C(C(=O)NC(C)(C)C)c1cccc(N)c1 (stereo not drawn) | ≤ 100 nM
C#CC(=O)N(c1cccc(C(=O)OC)c1)C(C(=O)NCc1ccccc1)c1ccc(N)cc1 (stereo not drawn) | ≤ 100 nM
C#CC(=O)N(c1cccc(S(C)(=O)=O)c1)C(C(=O)NCc1ccccc1)c1ccccc1 (stereo not drawn) | 100 nM
C#CC(=O)N(c1ccc(OC)cc1)C(C(=O)NC(C)(C)C)c1cccc(N)c1 (stereo not drawn) | 500 nM
C#CC(=O)N(c1ccc(S(N)(=O)=O)cc1)C(C(=O)NCc1ccccc1)c1cccc(N)c1 (stereo not drawn) | > 10000 nM
C#CC(=O)N(c1cccc(Cl)c1)C1(C(=O)NCc2ccccc2)CCC(F)(F)CC1 | ≤ 100 nM
C#CC(=O)N(c1cccc(CO)c1)C(C(=O)NCc1ccccc1)c1ccc(N)cc1 (stereo not drawn) | 2000 nM
C#CC(=O)N(c1ccc(OC)cc1)C(C(=O)NCc1ccccc1)c1cccc(N)c1 (stereo not drawn) | ≤ 100 nM
C#CC(=O)N(c1cccc(NC(C)=O)c1)C(C(=O)NCc1ccccc1)c1cccc(N)c1 (stereo not drawn) | 2000 nM
C#CC(=O)N(c1cccc(Cl)c1)C(C(=O)NCc1ccccc1)c1cccc(N)c1 (stereo not drawn) | ≤ 100 nM
C#CC(=O)N(c1ccn(C)c(=O)c1)C(C(=O)NCc1ccccc1)c1ccccc1 (stereo not drawn) | 2000 nM
C#CC(=O)N(c1ccc(OC)c(Cl)c1)C(C(=O)NCc1ccccc1)c1ccccc1 (stereo not drawn) | ≤ 100 nM
C#CC(=O)N(c1cccc(Cl)c1)C(C(=O)NCc1ccccc1)c1cccc(CCO)c1 (stereo not drawn) | 100 nM
C#CC(=O)N(c1ccc(OC)c(Cl)c1)C(C(=O)NCc1ccccc1)c1cccc(N)c1 (stereo not drawn) | ≤ 100 nM
C#CC(=O)N(c1cccc(Cl)c1F)C(C(=O)NCc1ccccc1)c1ccc(N)cc1 (stereo not drawn) | ≤ 100 nM
C#CC(=O)N(Cc1ccc(C(=O)OC)cc1)C(C)C(=O)NCc1ccccc1 (stereo not drawn) | 100 nM
CC#CC(=O)N(c1cccc(Cl)c1)C(C(=O)NCc1ccccc1)c1ccccc1 (stereo not drawn) | > 10000 nM

SMILES | EC50
C#CC(=O)N(c1cccc(Cl)c1)C(C(=O)NCc1ccccc1)C1CCOCC1 (stereo not drawn) | 500 nM
C#CC(=O)N(c1cccc(C#N)c1)C(C(=O)NCc1ccccc1)c1ccccc1 (stereo not drawn) | ≤ 100 nM
C#CC(=O)N(c1cccc(Cl)c1)C(C(=O)NCc1ccccc1)c1ccncc1 (stereo not drawn) | 500 nM
C#CC(=O)N(c1ccc(C(=O)OC)cc1)C(C(=O)NCc1ccccc1)c1cccc(N)c1 (stereo not drawn) | ≤ 100 nM
C#CC(=O)N(c1cccc(F)c1)C(C(=O)NCc1ccccc1)c1ccc(N)cc1 (stereo not drawn) | 100 nM
C#CC(=O)N(c1ccc(Cl)c(Cl)c1)C(C(=O)NCc1ccccc1)c1ccc(N)cc1 (stereo not drawn) | ≤ 100 nM
C#CC(=O)N(Cc1cc[nH]n1)C1(C(=O)NCc2ccccc2)CCOCC1 | > 10000 nM
C#CC(=O)N(c1cccc(Cl)c1)C1(C(=O)NCc2ccccc2)CCCCC1 | ≤ 100 nM
C#CC(=O)N(c1cccc2c1CCC2=O)C(C(=O)NCc1ccccc1)c1ccccc1 (stereo not drawn) | ≤ 100 nM
C#CC(=O)N(c1ccc(OC)cc1)C(C(=O)NCc1ccccc1)c1ccc(N)cc1 (stereo not drawn) | ≤ 100 nM
C#CC(=O)N(c1cccc(C(N)=O)c1)C(C(=O)NCc1ccccc1)c1ccc(N)cc1 (stereo not drawn) | > 10000 nM
C#CC(=O)N(c1ccc2c(cnn2C)c1)C(C(=O)NCc1ccccc1)c1ccccc1 (stereo not drawn) | ≤ 100 nM
C#CC(=O)N(c1cccc(Cl)c1Cl)C(C(=O)NCc1ccccc1)c1ccccc1 (stereo not drawn) | ≤ 100 nM
C#CC(=O)N(c1cccc(C#N)c1)C(C(=O)NCc1ccccc1)c1ccc(N)cc1 (stereo not drawn) | 100 nM
C#CC(=O)N(c1cccc(Cl)c1)[C@]1(C(=O)NCc2ccccc2)CC[C@@H](O)CC1 | 100 nM
C#CC(=O)N(c1ccc2cnn(C)c2c1)C(C(=O)NCc1ccccc1)c1ccccc1 (stereo not drawn) | ≤ 100 nM
C#CC(=O)N(c1cc(Cl)ccc1I)C(C(=O)NCc1ccccc1)c1ccccc1 (stereo not drawn) | ≤ 100 nM
C#CC(=O)N(c1cccc(C(N)=O)c1)C(C(=O)NCc1ccccc1)c1cccc(N)c1 (stereo not drawn) | > 10000 nM
C#CC(=O)N(c1ccc(CO)cc1)C(C(=O)NCc1ccccc1)c1ccc(N)cc1 (stereo not drawn) | 500 nM
C#CC(=O)N(c1cccc(Cl)c1)C(C(=O)NCc1ccc(F)cc1)c1ccccc1 (stereo not drawn) | ≤ 100 nM
C#CC(=O)N(c1cccc(Cl)c1)C(C(=O)NCc1ccccc1F)c1ccccc1 (stereo not drawn) | 100 nM
C#CC(=O)N(c1cccc(Cl)c1)C(C(=O)NCc1ccccc1)c1ccc(N)cc1 (stereo not drawn) | ≤ 100 nM
C#CC(=O)N(c1cccc(O)c1)C(C(=O)NCc1ccccc1)c1cccc(N)c1 (stereo not drawn) | ≤ 100 nM
